Assay results published in publication PMC9933715 (Antimicrobial Agents and Chemotherapy, 2023).
Entries after “also recorded” stand apart in the source; their conditions may differ. Read-outs that look alike come from different tables or passages of the source.

Assays:
WNV NY99 = assay: Extracellular infectious titer by plaque assay, WNV in Huh7.5 cells; format: cell-based, West Nile virus; conditions: 50 μM
[1] = target: ZIKV NS3/NS4B interaction (Zika virus, UniProt A0A024B7W1); assay: Coimmunoprecipitation assay of NS3/NS4B interaction; conditions: unpublished data
DENV2 16681s [2] = assay: Infectious viral titer by plaque assay, wild-type DENV2 in Huh7.5 cells; format: cell-based, Dengue virus; conditions: 50 μM, MOI 0.1, Huh7.5, 2 days postinfection
SARS-CoV-2 = format: cell-based
HCV, strain JFH-1 = format: cell-based, hepatitis C virus; conditions: 50 μM, JFH-1-Luc, Huh7.5, 2 days
MHV-A59 = assay: Infectious viral titer by plaque assay, MHV-A59 in DBT cells; format: cell-based, mouse hepatitis virus; conditions: 50 μM, MOI 0.0001, 1 day postinfection
[3] = test system: ZIKV-R2A (strain FSS13025); assay: microbe, parasite or virus in culture; format: cell-based; conditions: Zika virus, Huh7.5, 48 h; for EC50: read-out: EC50 ZIKV-R2A FSS13025; for activity at 50 µM: read-out: ZIKV-R2A replication (fold DMSO) Mean
Huh7.5 cells [4] = assay: Cell viability, CellTiter-Glo luminescent assay; conditions: for cell viability / cytotoxicity at the used concentration: Huh7.5; for Cell viability (fold DMSO) Mean: deconvolution screen, singletons, 50 µM, uninfected Huh7.5
[5] = test system: DENV vesicle packets (VP); assay: Replication-independent vesicle packet induction (pIRO-D) in Huh7/Lunet-T7 cells, TEM, western blot, immunofluorescence; conditions: 50 μM for 12 h, pIRO-D-transfected Huh7/Lunet-T7
DENV2 16681s [6] = assay: Intracellular DENV vRNA (RT-qPCR) and NS4B (western blot) in infected Huh7.5 cells; format: cell-based, Dengue virus; conditions: 50 μM, MOI 0.1, Huh7.5, 2 days postinfection
[7] = test system: DENV-R2A (Rluc-expressing DENV, serotype 2 strain 16681); assay: microbe, parasite or virus in culture; format: cell-based, Dengue virus; conditions: for decrease of viral replication (DENV-R2A): 50 μM, Huh7.5, 2 days postinfection, vs DMSO; for activity at 50 µM / EC50: Dengue virus, Huh7.5, 48 h; for EC50: read-out: EC50 DENV-R2A
DENV-R2A = format: cell-based, Dengue virus; conditions: 50 μM
ZIKV H/PF/2013 = assay: Infectious viral titer by plaque assay, ZIKV in Huh7.5 cells; format: cell-based, Zika virus; conditions: 50 μM, MOI 0.1, Huh7.5, 2 days postinfection
Huh7.5 cells [8] = test system: Huh7.5 cells; set-up: method as in PMID 34152811; conditions: same experimental set-up; cited from earlier work
[9] = test system: ZIKV-R2A (strain FSS13025); conditions: same experimental set-up; cited from earlier work
[10] = test system: DENV-R2A (Rluc-expressing DENV, serotype 2 strain 16681); conditions: same experimental set-up; cited from earlier work
[11] = Cell viability, CellTiter-Glo luminescent assay; conditions: human, CC50 Huh 7.5, uninfected Huh7.5, 2 days, CellTiter-Glo
sg-DENV-R2H = assay: Resistance selection with selectable subgenomic replicon sg-DENV-R2H in Huh7.5 cells; format: cell-based, Dengue virus; conditions: 100 µM, hygromycin 500 µg/mL, 31 days of dual selection
murine cancer model = conditions: cited from earlier work
[12] = read-out: DENV-R2A replication (fold DMSO) Mean, deconvolution screen, singletons, 50 µM, Huh7.5, 2 days postinfection
[13] = added up to 8 h after infection, read 2 days postinfection

Sequence of ZIKV NS3/NS4B interaction (A0A024B7W1 1503-2119): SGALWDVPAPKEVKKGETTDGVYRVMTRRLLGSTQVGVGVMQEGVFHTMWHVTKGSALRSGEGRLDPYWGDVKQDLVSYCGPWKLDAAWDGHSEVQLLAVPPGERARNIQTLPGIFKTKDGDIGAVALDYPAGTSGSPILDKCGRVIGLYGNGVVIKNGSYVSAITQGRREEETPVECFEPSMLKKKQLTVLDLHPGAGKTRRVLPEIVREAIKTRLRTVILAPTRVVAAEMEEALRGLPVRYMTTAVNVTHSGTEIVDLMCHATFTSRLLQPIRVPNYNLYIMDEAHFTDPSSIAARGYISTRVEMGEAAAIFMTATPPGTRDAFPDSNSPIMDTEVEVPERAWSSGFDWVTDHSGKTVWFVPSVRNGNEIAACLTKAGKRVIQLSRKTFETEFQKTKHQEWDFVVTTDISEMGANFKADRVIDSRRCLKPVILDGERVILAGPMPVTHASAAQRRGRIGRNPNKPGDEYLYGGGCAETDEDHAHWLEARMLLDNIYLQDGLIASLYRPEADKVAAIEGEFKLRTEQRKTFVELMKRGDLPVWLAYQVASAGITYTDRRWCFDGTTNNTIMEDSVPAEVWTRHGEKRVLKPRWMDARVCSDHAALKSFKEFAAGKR
Sequence of ZIKV NS3/NS4B interaction (A0A024B7W1 2270-2520): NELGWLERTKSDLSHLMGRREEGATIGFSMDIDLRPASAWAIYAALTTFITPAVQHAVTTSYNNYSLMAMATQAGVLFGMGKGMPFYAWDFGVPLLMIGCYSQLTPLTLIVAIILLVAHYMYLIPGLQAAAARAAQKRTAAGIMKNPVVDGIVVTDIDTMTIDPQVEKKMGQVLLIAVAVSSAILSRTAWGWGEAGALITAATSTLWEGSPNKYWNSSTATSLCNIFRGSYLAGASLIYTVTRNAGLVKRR

Q: Which “decrease of WNV extracellular infectious titers” value (WNV NY99; MOI 0.1, Huh7.5, 2 days postinfection) does the source give for O=C(Nc1ccccc1)c1cccnc1 [NPP3C, N-phenylpyridine-3-carboxamide] here?
A: The value was 22 fold.

Q: And the “formation and stability of ZIKV NS3/NS4B interaction” value [1]?
A: Its value is “do not inhibit”.

Q: What about the “abundance of released virions (plaque assay)” value (DENV2 16681s [2]) of the same compound?
A: The value was “reduced”.

Q: What about the “anti-SARS-CoV-2 activity (reduction)” value (SARS-CoV-2) of the same compound?
A: Its value is “less than 10 fold”.

Q: What about the “impact on HCV replication” value (HCV, strain JFH-1) of the same compound?
A: The value was “did inhibit”.

Q: What about the “impact on MHV replication” value (MHV-A59) of the same compound?
A: The value was “did not impede”.

Q: What about the EC50 [3] of the same compound?
A: Its EC50 is 15.3 µM.

Q: And the activity at 50 µM [3]?
A: The activity at 50 µM was 27%.

Q: What about the “cell viability / cytotoxicity at the used concentration” value (“cell viability / cytotoxicity” below) (Huh7.5 cells [4]; 50 μM) of the same compound?
A: Its value is “unaffected”.

Q: And the “levels of viral protein NS3 (western blot)” value [5]?
A: Its value is “remained unchanged”.

Q: And the “intracellular levels of DENV vRNA and NS4B” value (DENV2 16681s [6])?
A: Its value is “decrease”.

Q: What about the “decrease of viral replication (DENV-R2A)” value [7] of the same compound?
A: The value was 55 fold.

Q: And the activity at 50 µM ([7]; read-out: DENV-R2A replication (Fold DMSO), Table S3, NPP3C analogues, 50 µM, Huh7.5, 2 days postinfection)?
A: The activity at 50 µM was 1.31%.

Q: What about the activity at 50 µM [7, 12] of the same compound?
A: Its activity at 50 µM is 2.38%.

Q: What about the activity at 50 µM ([7]; read-out: DENV-R2A replication (fold DMSO), Table 1, NPP3C analogues, 50 μM, Huh7.5, 2 days postinfection) of the same compound?
A: Its activity at 50 µM is 1%.

Q: What about the EC50 [7] of the same compound?
A: Its EC50 is 7.1 µM.

Q: What about the “inhibitory activity when added after infection” value (“inhibitory activity when added” for short) (DENV-R2A; added 4 h after infection) of the same compound?
A: Its value is “retain their full inhibitory activity”.

Q: What about the “inhibitory activity when added” value (DENV-R2A; [13]) of the same compound?
A: Its value is “retained a strong inhibitory activity”.

Q: What about the “reduction in ZIKV viral titers” value (ZIKV H/PF/2013) of the same compound?
A: Its value is roughly 15 fold.

Q: With COc1cc2c(cc1O)CN(C)C[C@H]2c1ccc(O)cc1 [cherylline] as the compound, how does the CC50 (Huh7.5 cells [8]) read?
A: The CC50 was greater than 250 µM.

Q: And the EC50 [9]?
A: Its EC50 is 20.3 µM.

Q: What about the EC50 [10] of the same compound?
A: Its EC50 is 8.8 µM.

Q: With CC(=O)c1ccc2cn[nH]c2c1 [Compound 6A1HI, 6-acetyl-1H-indazole] as the compound, how does the “impact on WNV replication” value (WNV NY99; Huh7.5) read?
A: Its value is “Only moderate impacts (if any)”.

Q: And the “formation and stability of ZIKV NS3/NS4B interaction” value [1]?
A: Its value is “do not inhibit”.

Q: And the “decrease of infectious DENV particle production / DENV titers” value (DENV2 16681s [2])?
A: Its value is “more than 100 fold”.

Q: And the “decrease of released infectious virions (plaque assay)” value (DENV2 16681s [2])?
A: The value was roughly 3 Log10-fold.

Q: What about the “decrease of infectious DENV particle production / DENV titers” value (DENV2 16681s [2]; listed as 6A1H1) of the same compound?
A: The value was “up to 1,000 fold”.

Q: What about the “anti-SARS-CoV-2 activity (reduction)” value (SARS-CoV-2) of the same compound?
A: Its value is “less than 10 fold”.

Q: What about the “impact on SARS-CoV-2 (betacoronavirus) replication” value (SARS-CoV-2; 50 μM, Huh7.5) of the same compound?
A: Its value is “Only moderate impacts (if any)”.

Q: What about the “impact on HCV replication” value (HCV, strain JFH-1) of the same compound?
A: The value was “Only moderate impacts (if any)”.

Q: And the “impact on MHV replication” value (MHV-A59)?
A: The value was “Only moderate impacts (if any); also recorded: did not impede”.

Q: What about the EC50 [3] of the same compound?
A: The EC50 was 69.3 µM.

Q: And the activity at 50 µM [3]?
A: The activity at 50 µM was 29%.

Q: And the CC50 at 48 h [11]?
A: The CC50 at 48 h was greater than 150 µM.

Q: And the “cell viability / cytotoxicity” value (Huh7.5 cells [4]; 50 μM)?
A: Its value is “unaffected”.

Q: What about the “cell viability / cytotoxicity” value (Huh7.5 cells [4]; 50 μM, listed as 6A1H1) of the same compound?
A: Its value is “without any cytotoxicity”.

Q: What about the “Cell viability (Fold DMSO)” value (Huh7.5 cells [4]; 6A1HI analogues, test concentration = 50 µM, Huh7.5 cells) of the same compound?
A: The value was 0.93 Fold DMSO.

Q: And the “Cell viability (Fold DMSO)” value (Huh7.5 cells [4]; Table 2, 6A1HI analogues, 50 μM, Huh7.5, 2 days)?
A: Its value is 0.93 fold DMSO.

Q: And the “Cell viability (fold DMSO) Mean” value (Huh7.5 cells [4])?
A: Its value is 0.80 fold DMSO.

Q: What about the CC50 (Huh7.5 cells [4]; read-out: CC50 Huh 7.5, uninfected Huh7.5, 2 days, CellTiter-Glo) of the same compound?
A: Its CC50 is 177 µM.

Q: And the “levels of viral protein NS3 (western blot)” value [5]?
A: The value was “remained unchanged”.

Q: What about the “selection of resistant cells (genetic barrier to resistance)” value (sg-DENV-R2H) of the same compound?
A: Its value is “unable to select resistant cells”.

Q: And the “intracellular levels of DENV vRNA and NS4B” value (DENV2 16681s [6])?
A: Its value is “decrease”.

Q: What about the “decrease of viral replication (DENV-R2A)” value [7] of the same compound?
A: The value was 714 fold.

Q: What about the activity at 50 µM ([7]; read-out: DENV-R2A replication (Fold DMSO), 6A1HI analogues, test concentration = 50 µM, Huh7.5 cells) of the same compound?
A: Its activity at 50 µM is 3.77%.

Q: What about the activity at 50 µM [7, 12] of the same compound?
A: Its activity at 50 µM is 0.244%.

Q: And the activity at 50 µM ([7]; read-out: DENV-R2A replication (fold DMSO), Table 2, 6A1HI analogues, 50 μM, Huh7.5, 2 days postinfection)?
A: Its activity at 50 µM is 4%.

Q: What about the EC50 [7] of the same compound?
A: Its EC50 is 6.5 µM.

Q: What about the “inhibitory activity when added” value (DENV-R2A; added 4 h after infection) of the same compound?
A: Its value is “retain their full inhibitory activity”.

Q: What about the “inhibitory activity when added” value (DENV-R2A; [13]) of the same compound?
A: Its value is “retained a strong inhibitory activity”.

Q: And the “reduction in ZIKV viral titers” value (ZIKV H/PF/2013)?
A: Its value is 2 fold.

Q: What does the source list for NC(=O)c1ccccc1NC(=O)c1ccc(-c2ccccc2)cc1 [N-(2-[aminocarbonyl]phenyl) (1,1′-biphenyl)-4-carboxamide]?
A: efficacy in in vivo murine cancer model (murine cancer model): effective; toxicity in in vivo murine cancer model (murine cancer model): without observable toxicity

Q: What does the source list for CNC(=O)c1cc(Br)c[nH]1 [Compound 10Y-0822, CNC(=O)c1cc(Br)c[nH]1]?
A: activity at 50 µM [3]: 77%; Cell viability (fold DMSO) Mean (Huh7.5 cells [4]): 0.89 fold DMSO; activity at 50 µM [7, 12]: 75%

Q: Which activity at 50 µM [3] does the source give for Clc1ccc2nncn2c1 [GC-0731, Clc1ccc2nncn2c1] here?
A: The activity at 50 µM was 102%.

Q: What about the “Cell viability (fold DMSO) Mean” value (Huh7.5 cells [4]) of the same compound?
A: The value was 1.03 fold DMSO.

Q: What about the activity at 50 µM [7, 12] of the same compound?
A: The activity at 50 µM was 94%.

Q: Which results are given for Oc1ccc2ncccc2c1 [PS-3719, Oc1ccc2ncccc2c1]?
A: activity at 50 µM [3]: 107%; Cell viability (fold DMSO) Mean (Huh7.5 cells [4]): 1.19 fold DMSO; activity at 50 µM [7, 12]: 93%
